Patent US9505728B2, “Triazolone compounds and uses thereof” (INCEPTION 2, INC., priority 2012, dated 2016)

molecular target: T1, Human PPARα (Homo sapiens, UniProt Q07869); test: Human PPARα Reporter Assay (luciferase); assay type: cell-based; conditions: human PPARα reporter cells, overnight incubation, antagonism; read-out: Luciferase IC50
T1 construct: host or cells: proprietary non-human mammalian cells
T1 sequence (Q07869 1-468): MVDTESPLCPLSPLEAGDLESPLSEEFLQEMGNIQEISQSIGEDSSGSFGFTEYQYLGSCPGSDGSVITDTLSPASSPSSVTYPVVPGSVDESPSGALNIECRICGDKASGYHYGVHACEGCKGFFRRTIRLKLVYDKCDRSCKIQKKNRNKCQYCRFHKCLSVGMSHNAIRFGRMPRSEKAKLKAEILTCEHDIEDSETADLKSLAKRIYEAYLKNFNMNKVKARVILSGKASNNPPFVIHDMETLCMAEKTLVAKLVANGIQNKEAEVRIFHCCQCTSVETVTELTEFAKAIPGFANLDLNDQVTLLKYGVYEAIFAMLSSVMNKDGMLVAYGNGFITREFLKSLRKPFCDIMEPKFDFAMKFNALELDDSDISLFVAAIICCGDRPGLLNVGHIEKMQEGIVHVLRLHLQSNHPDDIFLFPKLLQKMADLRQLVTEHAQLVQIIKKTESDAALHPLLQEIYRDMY
Method in brief: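 Non-human mammalian cells constitutively expressing human PPARα with a PPARα-responsive luciferase reporter were dosed with compounds right after plating. After overnight incubation, media removed and detection reagent added; luminescence taken as proportional to PPARα activation, agonist or antagonist mode.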

IC50 [nM] | Compound
630 | CCn1c(CCCc2ccc(-c3cnc(OC)c(C(=O)O)n3)cc2)nn(Cc2ccc(C(C)(C)C)cc2)c1=O [Example 162, 6-(4-(3-(1-(4-(tert-Butyl)benzyl)-4-ethyl-5-oxo-4,5-dihydro-1H-1,2,4-triazol-3-yl)propyl)phenyl)-3-methoxypyrazine-2-carboxylic acid]
49 | CCn1c(CCC(F)(F)c2ccc(-c3ccc(C4(F)COC4)cn3)cc2)nn(Cc2ccc(C(C)(C)C)cc2)c1=O [Example 195, 1-(4-(tert-Butyl)benzyl)-3-(3,3-difluoro-3-(4-(5-(3-fluorooxetan-3-yl)pyridine-2-yl)phenyl)propyl)-4-ethyl-1H-1,2,4-triazol-5(4H)-one]
186 | CCn1c(CCCc2ccc(-c3ccc(OC)c(S(=O)(=O)Nc4ccccn4)c3)cc2)nn(Cc2ccc(C(C)(C)C)cc2)c1=O [Example 123, 4′-(3-(1-(4-(tert-Butyl)benzyl)-4-ethyl-5-oxo-4,5-dihydro-1H-1,2,4-triazol-3-yl)propyl)-4-methoxy-N-(pyridin-2-yl)-[1,1′-biphenyl]-3-sulfonamide]
647 | CCn1c(CCCc2ccc(-c3cccc(CN)c3)cc2)nn(Cc2ccc(C(C)(C)C)cc2)c1=O [Example 172, 3-(3-{4-[3-(Aminomethyl)phenyl]phenyl}propyl)-1-{[4-(tert-butyl)phenyl]methyl}-4-ethyl-1,2,4-triazolin-5-one]
816 | CCNC(=O)Nc1cccc(-c2ccc(CCCc3nn(Cc4ccc(C(C)(C)C)cc4)c(=O)n3CC)cc2)n1 [Example 171, 1-(6-(4-(3-(1-(4-(tert-Butyl)benzyl)-4-ethyl-5-oxo-4,5-dihydro-1H-1,2,4-triazol-3-yl)propyl)phenyl)pyridin-2-yl)-3-ethylurea]
41 | CCn1c(CCCc2ccc(-c3ccc(OC)c(CC(=O)NS(=O)(=O)c4ccccc4)c3)cc2)nn(Cc2ccc(C(C)(C)C)cc2)c1=O [Example 136, 2-(4′-(3-(1-(4-(tert-Butyl)benzyl)-4-ethyl-5-oxo-4,5-dihydro-1H-1,2,4-triazol-3-yl)propyl)-4-methoxy-[1,1′-biphenyl]-3-yl)-N-(phenylsulfonyl)acetamide]
241 | CCn1c(CCCc2ccc(-c3ccc(C(F)(F)F)c(N)c3)cc2)nn(Cc2ccc(C(C)(C)C)cc2)c1=O [Example 148, 3-(3-(3′-Amino-4′-(trifluoromethyl)-[1,1′-biphenyl]-4-yl)propyl)-1-(4-(tert-butyl)benzyl)-4-ethyl-1H-1,2,4-triazol-5(4H)-one]

The next lines start with the molecule.

Compound | IC50 [nM]
CCn1c(CCCc2ccc(-c3cccc(C(=O)O)c3)cc2)nn(Cc2ccc(C(C)(C)C)cc2)c1=O [Example 2, 4′-(3-(1-(4-(tert-Butyl)benzyl)-4-ethyl-5-oxo-4,5-dihydro-1H-1,2,4-triazol-3-yl)propyl)-[1,1′-biphenyl]-3-carboxylic acid] | 57
CC(C)(C)c1ccc(Cn2nc(CCCc3ccc(-c4cccc(CC(=O)O)c4)cc3)n(-c3ccccc3)c2=O)cc1 [Example 32, 2-(4′-(3-(1-(4-(tert-Butyl)benzyl)-5-oxo-4-phenyl-4,5-dihydro-1H-1,2,4-triazol-3-yl)propyl)-[1,1′-biphenyl]-3-yl)acetic acid] | 2990
CCn1c(CCCc2ccc(-c3cccc(CC(=O)O)c3)cc2)nn(Cc2ccc(C(C)(C)C)s2)c1=O [Example 54, 2-(4′-(3-(1-((5-(tert-Butyl)thiophen-2-yl)methyl)-4-ethyl-5-oxo-4,5-dihydro-1H-1,2,4-triazol-3-yl)propyl)-[1,1′-biphenyl]-3-yl)acetic acid] | 499
CCn1c(CCCc2ccc(-c3ccc(CS(=O)(=O)NCc4ccccc4)cc3)cc2)nn(Cc2ccc(C(C)(C)C)cc2)c1=O [Example 104, N-Benzyl-1-(4′-(3-(1-(4-(tert-butyl)benzyl)-4-ethyl-5-oxo-4,5-dihydro-1H-1,2,4-triazol-3-yl)propyl)-[1,1′-biphenyl]-4-yl)methanesulfonamide] | 591
CCn1c(CCCc2ccc(-c3cccc(N)c3)cc2)nn(Cc2ccc(C(C)(C)C)cc2)c1=O [Example 6, 3-(3-(3′-Amino-[1,1′-biphenyl]-4-yl)propyl)-1-(4-(tert-butyl)benzyl)-4-ethyl-1H-1,2,4-triazol-5(4H)-one] | 255
CCn1c(CCCc2ccc(-c3cccc(C(=O)NS(=O)(=O)c4ccccc4)c3)cc2)nn(Cc2ccc(C(C)(C)C)cc2)c1=O [Example 9, 4′-(3-(1-(4-(tert-Butyl)benzyl)-4-ethyl-5-oxo-4,5-dihydro-1H-1,2,4-triazol-3-yl)propyl)-N-(phenylsulfonyl)-[1,1′-biphenyl]-3-carboxamide] | 363
CCn1c(CCCc2ccc(-c3ccc(OC)c(NS(=O)(=O)Cc4ccccc4)n3)cc2)nn(Cc2ccc(C(C)(C)C)cc2)c1=O [Example 87, 1-{[4-(tert-Butyl)phenyl]methyl}-4-ethyl-3-{3-[4-(5-methoxy-6-{[benzylsulfonyl]amino}(2-pyridyl))phenyl]propyl}-1,2,4-triazolin-5-one] | 10
CCn1c(CCCc2ccc(-c3cncc(N)c3)cc2)nn(Cc2ccc(C(C)(C)C)cc2)c1=O [Example 109, 3-(3-(4-(5-Aminopyridin-3-yl)phenyl)propyl)-1-(4-(tert-butyl)benzyl)-4-ethyl-1H-1,2,4-triazol-5(4H)-one] | 590
CCn1c(CCCc2ccc(-c3cccc(CC(=O)O)c3)cc2)nn(Cc2ccc(C(C)(C)C)c(Br)c2)c1=O [Example 67, 2-(4′-(3-(1-(3-Bromo-4-(tert-butyl)benzyl)-4-ethyl-5-oxo-4,5-dihydro-1H-1,2,4-triazol-3-yl)propyl)-[1,1′-biphenyl]-3-yl)acetic acid] | 88
CCn1c(CCCc2ccc(-c3ccc(NS(=O)(=O)c4ccc(Oc5ccc(C(F)(F)F)cn5)cc4)cn3)cc2)nn(Cc2ccc(C(C)(C)C)cc2)c1=O [Example 77, 1-{[4-(tert-Butyl)phenyl]methyl}-4-ethyl-3-[3-(4-{5-[({4-[5-(trifluoromethyl)(2-pyridyloxy)]phenyl}sulfonyl)amino](2-pyridyl)}phenyl)propyl]-1,2,4-triazolin-5-one] | 703
CCn1c(CCCc2ccc(-c3ccc(OC)c(NS(=O)(=O)c4ccc(Cl)cc4)n3)cc2)nn(Cc2ccc(C(C)(C)C)cc2)c1=O [Example 92, 1-{[4-(tert-Butyl)phenyl]methyl}-3-{3-[4-(6-{[(4-chlorophenyl)sulfonyl]amino}-5-methoxy(2-pyridyl))phenyl]propyl}-4-ethyl-1,2,4-triazolin-5-one] | 5
CCn1c(CCCc2ccc(-c3cccc(NC(=O)Cc4ccccc4)n3)cc2)nn(Cc2ccc(C(C)(C)C)cc2)c1=O [Example 101, N-(6-{4-[3-(1-{[4-(tert-Butyl)phenyl]methyl}-4-ethyl-5-oxo(1,2,4-triazolin-3-yl))propyl]phenyl}(2-pyridyl))-2-phenylacetamide] | 402
CCCn1c(CCCc2ccc(-c3ccc(OCC)c(CC(=O)O)c3)cc2)nn(Cc2ccc(C(C)(C)C)cc2)c1=O [Example 68, 2-(4′-(3-(1-(4-(tert-Butyl)benzyl)-5-oxo-4-propyl-4,5-dihydro-1H-1,2,4-triazol-3-yl)propyl)-4-ethoxy-[1,1′-biphenyl]-3-yl)acetic acid] | 32
CCOc1ccc(-c2ccc(CCCc3nn(Cc4ccc(C(C)(C)C)cc4)c(=O)n3C)cc2)cc1CC(=O)O [Example 95, 2-(4′-(3-(1-(4-(tert-Butyl)benzyl)-4-methyl-5-oxo-4,5-dihydro-1H-1,2,4-triazol-3-yl)propyl)-4-ethoxy-[1,1′-biphenyl]-3-yl)acetic acid] | 15
